We go through 11 molecules from patent publication US5710170A, “Tri-aryl ethane derivatives as PDE IV inhibitors” (Merck Frosst Canada, Inc., priority 1996, dated 1998).

Molecules are shown by their SMILES.

T1 sequence (P27815 248-886 limits assumed): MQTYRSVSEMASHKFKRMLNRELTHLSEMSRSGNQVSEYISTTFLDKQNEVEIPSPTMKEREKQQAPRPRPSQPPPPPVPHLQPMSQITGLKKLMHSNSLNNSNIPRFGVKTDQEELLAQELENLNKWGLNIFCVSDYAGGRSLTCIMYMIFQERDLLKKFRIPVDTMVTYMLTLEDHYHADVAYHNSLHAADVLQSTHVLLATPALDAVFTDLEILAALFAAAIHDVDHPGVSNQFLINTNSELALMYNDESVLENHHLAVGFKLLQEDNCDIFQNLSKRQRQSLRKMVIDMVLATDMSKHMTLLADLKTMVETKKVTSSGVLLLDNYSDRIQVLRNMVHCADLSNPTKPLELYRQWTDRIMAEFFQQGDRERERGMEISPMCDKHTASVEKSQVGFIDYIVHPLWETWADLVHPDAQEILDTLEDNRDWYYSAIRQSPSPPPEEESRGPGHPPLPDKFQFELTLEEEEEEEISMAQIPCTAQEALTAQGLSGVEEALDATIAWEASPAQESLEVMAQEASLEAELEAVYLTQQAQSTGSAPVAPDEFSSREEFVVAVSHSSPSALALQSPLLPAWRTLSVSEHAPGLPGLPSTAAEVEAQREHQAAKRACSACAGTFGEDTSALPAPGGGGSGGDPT

The first data set concerns the target T1, GST-Met 248 PDE IVa (GST fusion protein of the human recombinant phosphodiesterase IVa (met-248)) (Homo sapiens, UniProt P27815).
T1 construct: phosphodiesterase IVa (met-248); made in house; host or cells: Sf-9 insect cells (baculovirus)
As to the kind of experiment: SPA based PDE activity assay: inhibition of human recombinant PDE IVa (GST-Met 248). It counts as biochemical. As to conditions: 100 nM cAMP; purified GST fusion protein, baculovirus/Sf-9 expression system. The method, then:
SPA Based PDE Activity Assay Protocol
Compounds which inhibit the hydrolysis of cAMP to AMP by the type-IV cAMP-specific phosphodiesterases were screened in 96-well plate format as follows:
In a 96 well-plate at 30° C. was added the test compound (dissolved in 2 ul DMSO), 188 ml of substrate buffer containing [2,8-^3 H] adenosine 3',5'-cyclic phosphate (cAMP, 100 nM to 50 μM), 10 mM MgCl2, 1 mM EDTA, 50 mM Tris, pH 7.5. The reaction was initiated by the addition of […] of human recombinant PDE-IV (the amount was controlled so that ~10% product was formed in 10 min. at 30° C.). The reaction was stopped after 10 min. by the addition of 1 mg of PDE-SPA beads (Amersham). The product AMP generated was quantified on a Microbeta 96-well plate counter. The signal in the absence of enzyme was defined as the background. 100% activity was defined as the signal detected in the presence of enzyme and DMSO with the background subtracted. Percentage of inhibition was calculated accordingly. IC50 value was approximated with a non-linear regression fit of the standard 4-parameter/multiple binding sites equation from a ten point titration.
IC50 values shown in Table 4 were determined with 100 nM cAMP using the purified GST fusion protein of the human recombinant phosphodiesterase IVa (met-248) produced from a baculovims/Sf-9 expression system.
Broadly, the IC50 is the concentration at which inhibition is half-maximal. Turning to `COc1ccc([C@H](Cc2ccncc2)c2ccc(C(=O)NS(C)(=O)=O)cc2)cc1OC1CCCC1` [Example 1, N-{(R)-4-[1-(3-Cyclopentyloxy-4-methoxyphenyl)-2-(4-pyridyl)ethyl]benzoyl}methanesulfonamide], the half-inhibitory concentration (IC50) came to 4 nM.

Take `COc1ccc([C@H](Cc2ccncc2)c2ccc(C(=O)NS(=O)(=O)c3ccccc3)cc2)cc1OC1CCCC1` [Example 2, N-{(R)-4-[1-(3-Cyclopentyloxy-4-methoxyphenyl)-2-(4-pyridyl)ethyl]benzoyl}benzenesulfonamide]: the IC50 came out at 0.5 nM.

Consider `COc1ccc([C@H](Cc2ccncc2)c2ccc(C(=O)NS(=O)(=O)C(F)(F)F)cc2)cc1OC1CCCC1` [Example 3, N-{(R)-4-[1-(3-Cyclopentyloxy-4-methoxyphenyl)-2-(4-pyridyl)ethyl]benzoyl}trifluoromethanesulfonamide], for which the 50% inhibitory concentration (IC50) is 1 nM.

`COc1ccc([C@H](Cc2ccncc2)c2ccc(C(=O)NS(=O)(=O)c3ccccc3C)cc2)cc1OC1CCCC1` [Example 4, N-{(R)-4-[1-(3-Cyclopentyloxy-4-methoxyphenyl)-2-(4-pyridyl)ethyl]benzoyl}o-toluenesulfonamide]: the concentration for half-maximal inhibition (IC50) is 0.4 nM.

With `COc1ccc([C@H](Cc2ccncc2)c2ccc(CC(=O)NS(=O)(=O)c3ccccc3)cc2)cc1OC1CCCC1` [Example 5, N-{(R)-4-[1-(3-Cyclopentyloxy-4-methoxyphenyl)-2-(4-pyridyl)ethyl]phenylacetyl}benzenesulfonamide], the half-inhibitory concentration (IC50) was found to be 1.5 nM.

In the case of `COc1ccc([C@H](Cc2ccncc2)c2ccc(CC(=O)NS(=O)(=O)C(F)(F)F)cc2)cc1OC1CCCC1` [Example 6, N-{(R)-4-[1-(3-Cyclopentyloxy-4-methoxyphenyl)-2-(4-pyridyl)ethyl]phenylacetyl}trifluoromethanesulfonamide], the IC50 came out at 0.8 nM.

With `COc1ccc([C@H](Cc2ccncc2)c2ccc(C(O)(C(F)(F)F)C(F)(F)F)cc2)cc1OC1CCCC1` [Example 7, (R)-4-{2-(3-Cyclopentyloxy-4-methoxyphenyl)-2-[4-(1,1,1,3,3,3-hexafluoro-2-hydroxypropan-2-yl)phenyl]ethyl}pyridine], the half-maximal inhibitory concentration (IC50) was determined as 0.2 nM.

`COc1ccc(C(Cc2ccncc2)c2ccc(S(=O)(=O)NC(=O)c3ccccc3C)cc2)cc1OC1CCCC1` (stereo not shown) [Example 8, N-(o-Toluoyl)-4-[1-(3-Cyclopentyloxy-4-methoxyphenyl)-2-(4-pyridyl)ethyl]benzenenesulfonamide]: the concentration for half-maximal inhibition (IC50) came to 0.7 nM.

Tested on in a further data set: not given
Assay: not given
As to conditions: used in asthma as a bronchodilator; cited from earlier work.
In the case of `Cn1c(=O)c2[nH]cnc2n(C)c1=O` [theophylline], the cardiovascular changes entry is reported as “significant cardiovascular changes such as tachycardia”.

The test system of a further data set is right atrial muscle.
Assay: not given
As to conditions: right atria; general statement; cited from earlier work.
For `Cc1[nH]c(=O)c(C#N)cc1-c1ccncc1` [milrinone], the “direct chronotropic effects of known PDE inhibitors” value was “positive chronotropic and inotropic effects”.

On to `COc1ccc(C2CNC(=O)C2)cc1OC1CCCC1` (stereo not shown) [rolipram], for which the “direct chronotropic effects of known PDE inhibitors” value is “do not have any direct effects”.

Another data set has as its system papillary muscle.
Assay: not given
As to conditions: general statement; cited from earlier work.
With `Cc1[nH]c(=O)c(C#N)cc1-c1ccncc1` [milrinone], the “direct inotropic effects of known PDE inhibitors” value was “positive chronotropic and inotropic effects”.

Regarding `COc1ccc(C2CNC(=O)C2)cc1OC1CCCC1` (stereo not shown) [rolipram], the “direct inotropic effects of known PDE inhibitors” value is “do not have any direct effects”.
